Measured values published in the Kinase Knowledgebase extract (Sharma et al. 2016).
“And” between values parts separate entries of the source, which are not always exact repeats. Identical values can stand only once.

Columns and labels:
[1] = target: MAPK14 (human) (UniProt Q16539); experiment: Assessment of Phosphorylation of MAPK14 in HeLa Cell Line
[2] = target: MAPK14 (human) (UniProt Q16539); experiment: Inhibition of MAPK14 Kinase Activity

MAPK14 (human), sequence (Q16539 whole entry, looked up): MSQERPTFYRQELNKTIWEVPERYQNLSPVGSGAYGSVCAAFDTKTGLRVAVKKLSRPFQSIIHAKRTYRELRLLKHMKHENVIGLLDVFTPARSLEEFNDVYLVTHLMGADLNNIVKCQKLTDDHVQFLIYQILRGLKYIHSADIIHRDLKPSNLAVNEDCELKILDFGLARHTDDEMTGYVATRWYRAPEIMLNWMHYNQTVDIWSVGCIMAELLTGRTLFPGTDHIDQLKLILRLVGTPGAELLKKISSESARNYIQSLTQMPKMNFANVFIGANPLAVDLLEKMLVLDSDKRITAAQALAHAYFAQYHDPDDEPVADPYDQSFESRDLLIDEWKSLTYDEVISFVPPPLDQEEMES

| Structure (SMILES) | IC50 [1] | IC50 [2] |
| --- | --- | --- |
| COCC[C@H](C)Nc1nc2ccc(-c3nc(C4(C)COC4)[nH]c3-c3ccc(F)cc3F)nc2o1 | < 50 nM | < 50 nM |
| COCC[C@@H](C)Nc1nc2ccc(-c3nc(C(C)(C)CO)[nH]c3-c3ccc(F)cc3F)nc2o1 | < 50 nM | < 50 nM |
| COCC[C@H](C)Nc1nc2ccc(-c3nc(C4CC4)[nH]c3-c3ccc(F)cc3F)nc2o1 | < 50 nM | < 50 nM |

Results, then the molecule that gave them:

| IC50 [1] | IC50 [2] | Structure (SMILES) |
| --- | --- | --- |
| < 50 nM | < 50 nM | CCOC[C@H](C)Nc1nc2ccc(-c3nc(C4(CO)CC4)[nH]c3-c3ccc(F)cc3F)nc2o1 |
| 1.6 nM and < 50 nM | < 50 nM | COCC[C@H](C)Nc1nc2ccc(-c3nc(C(C)(C)CO)[nH]c3-c3ccc(F)cc3F)nc2o1 |
